According to PubChem BioAssay AID248 (DTP/NCI, 2004):
Several values for one entry are separate records, joined by “and”; a condition that tells them apart may be missing. Identical values can stand only once. Inconclusive results and toxic doses are left out.

System: L1210 leukemia ip in BDF1 mice, survival T/C
Assay: NCI In Vivo Anticancer Drug Screen. Data for tumor model L1210 Leukemia (intraperitoneal) in B6D2F1 (BDF1) mice
Conditions: higher = longer survival
Summary of the method: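 Mice bearing the transplanted tumor received compound or vehicle. Survival of the treated group was divided by that of the vehicle-treated control group to give the ratio.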

[1] = endpoint: mean survival time, dose: 100.0 mg/kg/injection, schedule: Q01DX001 (ip), vehicle: carboxymethylcellulose (CMC)
[2] = endpoint: mean survival time, dose: 200.0 mg/kg/injection, schedule: Q01DX001 (ip), vehicle: carboxymethylcellulose (CMC)
[3] = endpoint: mean survival time, dose: 400.0 mg/kg/injection, schedule: Q01DX001 (ip), vehicle: carboxymethylcellulose (CMC)
[4] = endpoint: mean survival time, dose: 100.0 mg/kg/injection, schedule: Q01DX001 (ip), vehicle: Klucel (hydroxypropylcellulose) (HPC)
[5] = endpoint: mean survival time, dose: 100.0 mg/kg/injection, schedule: Q04DX003 (ip), vehicle: saline with Tween-80
[6] = endpoint: mean survival time, dose: 200.0 mg/kg/injection, schedule: Q01DX001 (ip), vehicle: Klucel (hydroxypropylcellulose) (HPC)
[7] = endpoint: mean survival time, dose: 200.0 mg/kg/injection, schedule: Q04DX003 (ip), vehicle: saline with Tween-80
[8] = endpoint: mean survival time, dose: 75.0 mg/kg/injection, schedule: Q01DX001 (ip), vehicle: saline
[9] = endpoint: mean survival time, dose: 50.0 mg/kg/injection, schedule: Q01DX001 (ip), vehicle: Klucel (hydroxypropylcellulose) (HPC)

Compound: COC1OC2COc3ccccc3OC2C(N)C1N(C)c1ccccc1 (centres undefined)
- T/C (endpoint: mean survival time, dose: 18.75 mg/kg/injection, schedule: Q01DX001 (ip), vehicle: saline with Tween-80): 98 % of control
- T/C (endpoint: mean survival time, dose: 37.5 mg/kg/injection, schedule: Q01DX001 (ip), vehicle: saline with Tween-80): 96 % of control
- T/C (endpoint: mean survival time, dose: 75.0 mg/kg/injection, schedule: Q01DX001 (ip), vehicle: saline with Tween-80): 93 % of control

Compound: CCCCCC[C@@H](O)C/C=C\CCCCCCCC(=O)OCCO
- T/C (endpoint: median survival time, dose: 25.0 mg/kg/injection, schedule: Q01DX009 (ip), vehicle: saline): 101 % of control
- T/C (endpoint: median survival time, dose: 50.0 mg/kg/injection, schedule: Q01DX009 (ip), vehicle: saline): 100 % of control
- T/C (endpoint: median survival time, dose: 100.0 mg/kg/injection, schedule: Q01DX009 (ip), vehicle: saline): 120 % of control
- T/C (endpoint: median survival time, dose: 200.0 mg/kg/injection, schedule: Q01DX009 (ip), vehicle: saline): 106 % of control
- T/C (endpoint: median survival time, dose: 400.0 mg/kg/injection, schedule: Q01DX009 (ip), vehicle: saline): 106 % of control
- T/C (endpoint: median survival time, dose: 800.0 mg/kg/injection, schedule: Q01DX009 (ip), vehicle: saline): 101 % of control

Compound: COc1cc2c(cc1OC)C(C#N)C2 (centres undefined)
- T/C (endpoint: mean survival time, dose: 6.0 mg/kg/injection, schedule: Q01DX009 (ip), vehicle: Klucel (hydroxypropylcellulose) (HPC)): 104 % of control
- T/C (endpoint: mean survival time, dose: 12.0 mg/kg/injection, schedule: Q01DX009 (ip), vehicle: Klucel (hydroxypropylcellulose) (HPC)): 92 % of control
- T/C (endpoint: mean survival time, dose: 12.0 mg/kg/injection, schedule: Q04DX003 (ip), vehicle: Klucel (hydroxypropylcellulose) (HPC)): 100 % of control and 105 % of control
- T/C (endpoint: mean survival time, dose: 25.0 mg/kg/injection, schedule: Q01DX009 (ip), vehicle: Klucel (hydroxypropylcellulose) (HPC)): 100 % of control
- T/C (endpoint: mean survival time, dose: 25.0 mg/kg/injection, schedule: Q04DX003 (ip), vehicle: Klucel (hydroxypropylcellulose) (HPC)): 100 % of control
- T/C (endpoint: mean survival time, dose: 50.0 mg/kg/injection, schedule: Q04DX003 (ip), vehicle: Klucel (hydroxypropylcellulose) (HPC)): 97 % of control and 92 % of control

Compound: CCC[Si](C)(C)C
- T/C [1]: 94 % of control
- T/C [2]: 96 % of control
- T/C [3]: 89 % of control

Compound: S=C(Nc1ccccc1)N1CC1
- T/C [4]: 96 % of control
- T/C [5]: 91 % of control
- T/C [6]: 98 % of control
- T/C [7]: 92 % of control
- T/C (endpoint: mean survival time, dose: 400.0 mg/kg/injection, schedule: Q01DX001 (ip), vehicle: Klucel (hydroxypropylcellulose) (HPC)): 94 % of control
- T/C (endpoint: mean survival time, dose: 400.0 mg/kg/injection, schedule: Q04DX003 (ip), vehicle: saline with Tween-80): 90 % of control

Compound: CC(C)=CCNC1=NCCN1
- T/C (endpoint: mean survival time, dose: 12.5 mg/kg/injection, schedule: Q01DX009 (ip), vehicle: saline): 91 % of control
- T/C (endpoint: mean survival time, dose: 25.0 mg/kg/injection, schedule: Q01DX009 (ip), vehicle: saline): 94 % of control
- T/C (endpoint: mean survival time, dose: 50.0 mg/kg/injection, schedule: Q01DX009 (ip), vehicle: saline): 99 % of control

Compound: Cc1cc(C)c(CCl)c(C)c1CCl
- T/C (endpoint: mean survival time, dose: 100.0 mg/kg/injection, schedule: Q01DX001 (ip), vehicle: saline): 119 % of control

Compound: CCC[N+](C)(C)CC
- T/C (endpoint: mean survival time, dose: 37.5 mg/kg/injection, schedule: Q01DX001 (ip), vehicle: saline): 104 % of control
- T/C [8]: 95 % of control

Compound: O=C1NC(=O)c2c(Cl)c(Cl)c(Cl)c(Cl)c21
- T/C (endpoint: mean survival time, dose: 25.0 mg/kg/injection, schedule: Q04DX003 (ip), vehicle: saline): 95 % of control
- T/C (endpoint: mean survival time, dose: 50.0 mg/kg/injection, schedule: Q04DX003 (ip), vehicle: saline): 106 % of control
- T/C (endpoint: mean survival time, dose: 100.0 mg/kg/injection, schedule: Q04DX003 (ip), vehicle: saline): 92 % of control and 93 % of control
- T/C (endpoint: mean survival time, dose: 200.0 mg/kg/injection, schedule: Q04DX003 (ip), vehicle: saline): 98 % of control
- T/C (endpoint: mean survival time, dose: 400.0 mg/kg/injection, schedule: Q04DX003 (ip), vehicle: saline): 111 % of control

Compound: O=C1c2ccccc2C(=O)N1Cc1cccc(CBr)c1
- T/C [9]: 105 % of control
- T/C [4]: 92 % of control
- T/C [6]: 91 % of control

Compound: Nc1nc(N)c2nc(COc3ccccc3)cnc2n1
- T/C (endpoint: mean survival time, dose: 20.0 mg/kg/injection, schedule: Q01DX009 (ip), vehicle: Klucel (hydroxypropylcellulose) (HPC)): 98 % of control
- T/C (endpoint: mean survival time, dose: 40.0 mg/kg/injection, schedule: Q01DX009 (ip), vehicle: Klucel (hydroxypropylcellulose) (HPC)): 107 % of control
- T/C (endpoint: mean survival time, dose: 80.0 mg/kg/injection, schedule: Q01DX009 (ip), vehicle: Klucel (hydroxypropylcellulose) (HPC)): 107 % of control

Compound: CC1(C(Cl)(Cl)Cl)C=CC(=NO)C=C1 (centres undefined)
- T/C [5]: 110 % of control
- T/C [7]: 101 % of control

Compound: Cc1csc2nc(-c3ccccc3)nc(Cl)c12
- T/C (endpoint: mean survival time, dose: 100.0 mg/kg/injection, schedule: Q04DX003 (ip), vehicle: saline sonified): 97 % of control
- T/C (endpoint: mean survival time, dose: 200.0 mg/kg/injection, schedule: Q04DX003 (ip), vehicle: saline sonified): 93 % of control
- T/C (endpoint: mean survival time, dose: 400.0 mg/kg/injection, schedule: Q04DX003 (ip), vehicle: saline sonified): 95 % of control

Compound: COc1cc(NC(=O)CN(CCCl)CCCl)cc(OC)c1OC
- T/C (endpoint: mean survival time, dose: 13.3 mg/kg/injection, schedule: Q01DX009 (ip), vehicle: carboxymethylcellulose (CMC)): 116 % of control
- T/C (endpoint: mean survival time, dose: 20.0 mg/kg/injection, schedule: Q01DX009 (ip), vehicle: carboxymethylcellulose (CMC)): 100 % of control
- T/C (endpoint: mean survival time, dose: 25.0 mg/kg/injection, schedule: Q01DX001 (ip), vehicle: carboxymethylcellulose (CMC)): 122 % of control
- T/C (endpoint: mean survival time, dose: 30.0 mg/kg/injection, schedule: Q01DX009 (ip), vehicle: carboxymethylcellulose (CMC)): 124 % of control
- T/C (endpoint: mean survival time, dose: 44.4 mg/kg/injection, schedule: Q01DX009 (ip), vehicle: carboxymethylcellulose (CMC)): 123 % of control
- T/C (endpoint: mean survival time, dose: 45.0 mg/kg/injection, schedule: Q01DX009 (ip), vehicle: carboxymethylcellulose (CMC)): 107 % of control
- T/C (endpoint: mean survival time, dose: 50.0 mg/kg/injection, schedule: Q01DX001 (ip), vehicle: carboxymethylcellulose (CMC)): 116 % of control
- T/C (endpoint: mean survival time, dose: 66.6 mg/kg/injection, schedule: Q01DX009 (ip), vehicle: carboxymethylcellulose (CMC)): 110 % of control
- T/C (endpoint: mean survival time, dose: 89.0 mg/kg/injection, schedule: Q01DX001 (ip), vehicle: carboxymethylcellulose (CMC)): 112 % of control
- T/C (endpoint: mean survival time, dose: 89.0 mg/kg/injection, schedule: Q01DX001 (ip), vehicle: saline): 118 % of control
- T/C [1]: 119 % of control
- T/C (endpoint: mean survival time, dose: 100.0 mg/kg/injection, schedule: Q01DX009 (ip), vehicle: carboxymethylcellulose (CMC)): 86 % of control
- T/C (endpoint: mean survival time, dose: 100.0 mg/kg/injection, schedule: Q01DX009 (ip), vehicle: saline): 170 % of control
- T/C (endpoint: mean survival time, dose: 133.0 mg/kg/injection, schedule: Q01DX001 (ip), vehicle: carboxymethylcellulose (CMC)): 102 % of control and 115 % of control
- T/C (endpoint: mean survival time, dose: 150.0 mg/kg/injection, schedule: Q01DX009 (ip), vehicle: carboxymethylcellulose (CMC)): 88 % of control
- T/C (endpoint: mean survival time, dose: 150.0 mg/kg/injection, schedule: Q01DX009 (ip), vehicle: saline): 90 % of control
- T/C [2]: 114 % of control and 120 % of control
- T/C (endpoint: mean survival time, dose: 300.0 mg/kg/injection, schedule: Q01DX001 (ip), vehicle: carboxymethylcellulose (CMC)): 107 % of control

Compound: Brc1cccc2nc(/C=C\c3ccccc3)ccc12
- T/C (endpoint: mean survival time, dose: 100.0 mg/kg/injection, schedule: Q01DX001 (ip), vehicle: other): 98 % of control
- T/C (endpoint: mean survival time, dose: 200.0 mg/kg/injection, schedule: Q01DX001 (ip), vehicle: other): 95 % of control
- T/C (endpoint: mean survival time, dose: 400.0 mg/kg/injection, schedule: Q01DX001 (ip), vehicle: other): 89 % of control

Compound: Nc1ccc(-c2ccc(N)cc2I)c(I)c1
- T/C (endpoint: mean survival time, dose: 25.6 mg/kg/injection, schedule: Q04DX002 (ip), vehicle: saline with Tween-80): 100 % of control
- T/C (endpoint: mean survival time, dose: 64.0 mg/kg/injection, schedule: Q04DX002 (ip), vehicle: saline with Tween-80): 95 % of control
- T/C (endpoint: mean survival time, dose: 160.0 mg/kg/injection, schedule: Q04DX002 (ip), vehicle: saline with Tween-80): 100 % of control
- T/C (endpoint: mean survival time, dose: 400.0 mg/kg/injection, schedule: Q04DX002 (ip), vehicle: saline with Tween-80): 103 % of control

Compound: N#CC(c1ccc(Br)cc1)C1c2ccccc2-c2ccccc21 (centres undefined)
- T/C [9]: 93 % of control
- T/C [4]: 91 % of control
- T/C [6]: 86 % of control

Compound: O=[N+]([O-])c1ccc(S(=O)(=O)SC(F)(F)F)cc1
- T/C [8]: 106 % of control
- T/C (endpoint: mean survival time, dose: 150.0 mg/kg/injection, schedule: Q01DX001 (ip), vehicle: saline): 102 % of control

Compound: O=C1c2cc(N=C(NO)C(F)(F)F)ccc2-c2ccc([N+](=O)[O-])cc21
- T/C [1]: 90 % of control
- T/C [2]: 90 % of control
- T/C [3]: 100 % of control
